PMC8577775, “Small molecule allosteric inhibitors of RORγt block Th17-dependent inflammation and associated gene expression in vivo” (PLoS ONE, 2021)

How the values were obtained:
[1] = tested on: RORγt-dependent inflammation; assay: RORγt/Th17-dependent inflammation in vivo, overall statement (acute and chronic settings); details: with IC50 coverage alone (same level of response)
[2] = Intra-tumoral compound concentration, KP/C mouse model; format: in vivo; details: 16 hours post dosing, mean ± SD
Procedure: In the IMQ-induced inflammation model, whole blood (300–500 μL) was collected and centrifuged (1000 g x 10 min) at 20° C to obtain plasma samples. […] Plasma standard curves were prepared by adding each test compound in to mouse plasma and serial diluting to desired concentration. Blank tumor homogenate and blank plasma was add to plasma standards and tumor homogenate samples, respectively, at 1:1 (v:v) ratio for matrix match of tumor sample analysis. An aliquot of 50 μL of each plasma sample, each tumor sample and each corresponding standards was added to 200 μL of acetonitrile with 100 ng/mL of carbutamide (Sigma Aldrich, St. Louis, MO), internal standard (IS), for protein precipitation, then filtered through a 96-well Orochem filtration plate (Orochem Technologies Inc., Naperville IL). Each extracted test compound in resultant supernatant was analyzed with appropriate liquid chromatography column eluting to a Sciex QTRAP 6500+ LC/MS/MS system (Applied Biosystems, Foster City, CA). Each analyte was characterized by Turbo IonSpray ionization multiple reaction monitoring (MRM). Quantitative drug concentrations were determined by standard calibration curve analysis, using linear fitting with 1/x^2 weighted plot of the analyte/IS peak area ratio vs analyte concentration. […]

[3] = tested on: MOG35-55-induced EAE in C57BL/6 mice; assay: Experimental autoimmune encephalomyelitis (EAE) model; format: in vivo, mouse; details: for EAE clinical score (0-5): vehicle peak 3.08 ± 0.28
Procedure: EAE studies were conducted at Hooke Laboratories. WT female C57BL/6 mice (Taconic Labs) 9 weeks of age were inoculated on day 0 with MOG35-55 peptide (Hooke Kit™ MOG35-55/CFA Emulsion PTX) (EK-2110, Hooke Laboratories, Lawrence MA) followed by intraperitoneal (IP) injections of pertussis toxin at 2 and 24 hours. Mice were treated twice daily (BID, starting at day 1) per os (PO) with vehicle (0.5% MC/0.25% Tween80) or RORγt inhibitors at indicated doses. FTY720 (Gilenya) was dosed once daily (QD) at 3 mg/kg starting at day 1. EAE clinical scores were evaluated daily and scored from 0–5 according to Hooke Lab EAE scoring guidelines http://hookelabs.com/services/cro/eae/MouseEAEscoring.html. Mean clinical scores & body weight loss were assessed and statistical significance calculated by Wilcoxon’s non-parametric or 2-tailed Student’s t-test, respectively. All studies performed were approved in accordance with the Institutional Animal Care and Use Committee of Bristol Myers Squibb and complied according to Bristol Myers Squibb guidelines.

O=C(O)[C@@H]1CCC(c2nn(C(=O)c3c(Cl)cccc3C(F)(F)F)c3cccc(F)c23)=C[C@H]1O [Compound 3]
inhibition of Th17-dependent responses [1]: ~ 45%
tumor concentration ([2]; in combination with gemcitabine): 222 pmol/g
tumor concentration ([2]; single agent): 47 pmol/g
EAE clinical score (0-5) ([3]; 3 mg/kg BID PO): 2.79 ± 0.25
EAE clinical score (0-5) ([3]; 10 mg/kg BID PO): 2.32 ± 0.21
significant disease onset ([3]; 30 mg/kg BID PO, vehicle day 12): 15 days
EAE clinical score (0-5) ([3]; 30 mg/kg BID PO): 1.5 ± 0.27
body weight loss in EAE ([3]; maintained for the duration of study): significant reductions in body weight loss
